Source: patent US9133148B2, “Carbamate compounds and of making and using same” (Abide Therapeutics, Inc., priority 2012, dated 2015)

Legend:
Format in all cases: biochemical
ABHD6 = ABHD6 (Mus musculus (Mouse), UniProt Q8R2Y0); experiment: Competitive ABPP, % inhibition at 1 uM, ABHD6
Protocol: (§1) In Vitro Competitive Activity-Based Protein Profiling.
(§2) Proteomes (mouse brain membrane fraction or cell lysates) ([…], 1.0 mg/mL total protein concentration) were preincubated with varying concentrations of inhibitors at 37° C. After 30 min, FP-Rh (1.0 μL, 50 μM in DMSO) was added and the mixture was incubated for another 30 min at 37° C. Reactions were quenched with SDS loading buffer (50 μL—4×) and run on SDS-PAGE.

MAGL = MAGL (Mus musculus (Mouse), UniProt O35678); experiment: Competitive ABPP, % inhibition at 1 uM, MAGL
Protocol: as §1, §2

FAAH = FAAH (Mus musculus (Mouse), UniProt O08914); experiment: Competitive ABPP, % inhibition at 1 uM, FAAH
Protocol: as §1
as §2, with “SDS-PAGE. Following gel imaging, serine hydrolase activity was determined by measuring fluorescent intensity of gel bands corresponding to MAGL, ABHD6 and FAAH using ImageJ 1.43u software.” for “SDS-PAGE.”

Sequence of ABHD6 (Q8R2Y0 whole entry): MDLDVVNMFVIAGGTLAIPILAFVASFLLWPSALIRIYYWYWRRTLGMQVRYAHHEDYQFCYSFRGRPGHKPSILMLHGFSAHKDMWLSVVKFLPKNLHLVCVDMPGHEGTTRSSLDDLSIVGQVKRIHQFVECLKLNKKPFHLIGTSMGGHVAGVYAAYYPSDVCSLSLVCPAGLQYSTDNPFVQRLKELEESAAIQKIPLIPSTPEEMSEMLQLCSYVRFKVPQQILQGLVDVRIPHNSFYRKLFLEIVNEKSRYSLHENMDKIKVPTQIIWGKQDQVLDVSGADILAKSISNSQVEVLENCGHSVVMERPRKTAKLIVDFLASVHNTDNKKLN
Sequence of FAAH (O08914 whole entry): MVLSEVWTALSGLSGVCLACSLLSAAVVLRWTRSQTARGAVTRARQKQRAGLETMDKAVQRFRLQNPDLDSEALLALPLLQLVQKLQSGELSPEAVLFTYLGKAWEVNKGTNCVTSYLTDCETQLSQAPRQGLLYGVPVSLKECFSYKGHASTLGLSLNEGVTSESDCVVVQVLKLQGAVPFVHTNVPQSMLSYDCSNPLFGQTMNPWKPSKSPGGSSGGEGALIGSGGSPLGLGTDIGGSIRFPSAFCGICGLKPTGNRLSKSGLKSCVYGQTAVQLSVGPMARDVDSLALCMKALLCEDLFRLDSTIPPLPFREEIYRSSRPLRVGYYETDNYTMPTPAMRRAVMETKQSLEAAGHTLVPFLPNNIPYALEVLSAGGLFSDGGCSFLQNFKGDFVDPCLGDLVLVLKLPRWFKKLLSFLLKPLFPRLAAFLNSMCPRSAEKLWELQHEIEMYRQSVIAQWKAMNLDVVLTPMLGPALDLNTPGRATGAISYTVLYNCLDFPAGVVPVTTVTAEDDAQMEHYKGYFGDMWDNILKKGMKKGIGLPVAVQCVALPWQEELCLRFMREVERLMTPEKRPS
Sequence of MAGL (O35678 whole entry): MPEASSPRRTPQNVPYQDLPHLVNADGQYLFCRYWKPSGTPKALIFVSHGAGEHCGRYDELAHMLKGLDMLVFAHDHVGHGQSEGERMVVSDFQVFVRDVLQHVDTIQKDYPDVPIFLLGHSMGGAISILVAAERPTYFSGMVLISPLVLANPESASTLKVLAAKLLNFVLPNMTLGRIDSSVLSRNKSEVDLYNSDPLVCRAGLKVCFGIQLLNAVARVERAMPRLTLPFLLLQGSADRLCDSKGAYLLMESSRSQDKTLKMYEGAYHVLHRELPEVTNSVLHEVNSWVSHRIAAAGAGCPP

inhibition at 1 µM (ABHD6) [%]	inhibition at 1 µM (MAGL) [%]	inhibition at 1 µM (FAAH) [%]	Compound
< 25	25 to 75	< 25	O=C(OC(C(F)(F)F)C(F)(F)F)N1CCN(Cc2cccc(Cl)c2C(=O)N2CCOCC2)CC1 [Example 9bf, 1,1,1,3,3,3-hexafluoropropan-2-yl 4-(3-chloro-2-(morpholine-4-carbonyl)benzyl)piperazine-1-carboxylate]
25 to 75	25 to 75	< 25	C[C@H]1CN(Cc2ccc(N3CCOCC3)cc2F)CCN1C(=O)OC(C(F)(F)F)C(F)(F)F [Example 9i, 1,1,1,3,3,3-hexafluoropropan-2-yl(2S)-4-[[2-fluoro-4-(morpholin-4-yl)phenyl]methyl]-2-methylpiperazine-1-carboxylate]
25 to 75	25 to 75	< 25	C[C@H]1CN(Cc2ccc(N3CCOCC3)cc2C(F)(F)F)CCN1C(=O)OC(C(F)(F)F)C(F)(F)F [Example 9j, 1,1,1,3,3,3-hexafluoropropan-2-yl(2S)-2-methyl-4-[[4-(morpholin-4-yl)-2-(trifluoromethyl)phenyl]methyl]piperazine-1-carboxylate]

The next lines start with the compound.

Compound	inhibition at 1 µM (ABHD6) [%]	inhibition at 1 µM (MAGL) [%]	inhibition at 1 µM (FAAH) [%]
O=C(OC(C(F)(F)F)C(F)(F)F)N1CCN(Cc2ccc(N3CCOCC3)cc2C(F)(F)F)CC1 [Example 9aj, 1,1,1,3,3,3-hexafluoropropan-2-yl 4-[[4-(morpholin-4-yl)-2-(trifluoromethyl)phenyl]methyl]piperazine-1-carboxylate]	25 to 75	25 to 75	< 25
O=C(OC(C(F)(F)F)C(F)(F)F)N1CCN(Cc2ccc(N3CCOCC3)cc2OC(F)(F)F)CC1 [Example 9ak, 1,1,1,3,3,3-hexafluoropropan-2-yl 4-[[4-(morpholin-4-yl)-2-(trifluoromethoxy)phenyl]methyl]piperazine-1-carboxylate]	25 to 75	> 75	< 25
C[C@H]1CN(Cc2ccc(N3CCOCC3)cc2Cl)CCN1C(=O)OC(C(F)(F)F)C(F)(F)F [Example 9al, 1,1,1,3,3,3-hexafluoropropan-2-yl(2S)-4-[[2-chloro-4-(morpholin-4-yl)phenyl]methyl]-2-methylpiperazine-1-carboxylate]	25 to 75	25 to 75	< 25
C[C@@H]1CN(Cc2ccc(N3CCOCC3)cc2Cl)CCN1C(=O)OC(C(F)(F)F)C(F)(F)F [Example 9am, 1,1,1,3,3,3-hexafluoropropan-2-yl(2R)-4-[[2-chloro-4-(morpholin-4-yl)phenyl]methyl]-2-methylpiperazine-1-carboxylate]	< 25	< 25	< 25
CC(C)c1cc(-c2ccccc2)ccc1CN1CCN(C(=O)OC(C(F)(F)F)C(F)(F)F)CC1 [Example 9at, 1,1,1,3,3,3-hexafluoropropan-2-yl 4-((3-isopropyl-[1,1′-biphenyl]-4-yl)methyl)piperazine-1-carboxylate]	< 25	25 to 75	< 25
CC(C)c1cc(N2CCOCC2)ccc1CN1CCN(C(=O)OC(C(F)(F)F)C(F)(F)F)CC1 [Example 9bc, 1,1,1,3,3,3-hexafluoropropan-2-yl 4-[[4-(morpholin-4-yl)-2-(propan-2-yl)phenyl]methyl]piperazine-1-carboxylate]	< 25	25 to 75	< 25
O=C(OC(C(F)(F)F)C(F)(F)F)N1CCN(Cc2ccc(C(=O)N3CCCC3)cc2Cl)CC1 [Example 9bd, 1,1,1,3,3,3-hexafluoropropan-2-yl 4-(2-chloro-4-(pyrrolidine-1-carbonyl)benzyl)piperazine-1-carboxylate]	25 to 75	25 to 75	< 25
